This is an account of results in ChEMBL document CHEMBL1201862, “PubChem BioAssay data set” (2004).

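These data come from cells grown in 96-well plates and exposed to compound for 48 hours at five concentrations. GI50 = concentration required for 50% inhibition of growth.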 Activity calls are given as the source filed them. Cut-off read from the data, not from the text of the source: active = GI50 up to about 1.1 µM and inactive = higher. Where only a bound is given, the exact number is not on record here.

Test systems include SNB-19; PC-3; COLO 205; OVCAR-4; BT-549; U-251; OVCAR-5; MDA-N; HL-60; HT-29; RPMI-8226; MOLT-4; SK-MEL-2; SK-MEL-5; UACC-62; HCT-15; MCF7; CCRF-CEM; NCI-H522; NCI-H23.
Common to all, as to experiment: inhibition of tumour cell growth, NCI panel, 48 h

Regarding `Cc1cc(=O)oc2c(OS(C)(=O)=O)c(OS(C)(=O)=O)ccc12`, the GI50 in the assay with SNB-19, in the assay on PC-3, in the assay on COLO 205, in the assay on OVCAR-4, in the assay with BT-549 and in the assay with U-251 was > 100 µM (inactive) in each case. Besides, the GI50 in the assay with OVCAR-5, with MDA-N, in the assay with HL-60, in the assay with HT-29, in the assay with RPMI-8226 and in the assay on MOLT-4 was > 100 µM (inactive) in each case. Besides, the GI50 is > 100 µM (inactive) in the assay on SK-MEL-2; > 100 µM (inactive) with SK-MEL-5; > 100 µM (inactive) with UACC-62; more than 100 µM in the assay on HCT-15; > 100 µM (inactive) in the assay on MCF7; > 100 µM (inactive) in the assay on CCRF-CEM. Besides, the GI50 in the assay on NCI-H522 and with NCI-H23 was > 100 µM (inactive) each time.

With `COC(=O)Nc1nc2cc(NS(=O)(=O)c3cccs3)ccc2[nH]1`, the GI50 is 23.2 µM (inactive) in the assay with SNB-19; 33.9 µM (inactive) in the assay on PC-3; 20.7 µM (inactive) in the assay with COLO 205; 38.9 µM (inactive) with OVCAR-4; 71.8 µM (inactive) in the assay on BT-549; 30.4 µM (inactive) in the assay on U-251. The GI50 with OVCAR-5 is 37.2 µM (inactive); with MDA-N, 3.56 µM (inactive); in the assay on HL-60, 23 µM (inactive); in the assay on HT-29, 23 µM (inactive); in the assay with RPMI-8226, 35.1 µM (inactive); with MOLT-4, 13.6 µM (inactive). Besides, the GI50 with SK-MEL-2 is 76.6 µM (inactive); in the assay with SK-MEL-5, 18.6 µM (inactive); in the assay with UACC-62 it was 17 µM (inactive); in the assay on HCT-15, 14.3 µM; in the assay with MCF7, 17.8 µM (inactive); in the assay on CCRF-CEM it was 34.8 µM (inactive). Moreover, the GI50 was 6.55 µM (inactive) in the assay on NCI-H522 and 30.5 µM (inactive) in the assay on NCI-H23.

Consider `Cc1nnc(Sc2nc(C#N)c(C#N)nc2Sc2nnc(C)s2)s1`, for which the GI50 in the assay on SNB-19 was 22 µM (inactive); in the assay with PC-3, 14.8 µM (inactive); in the assay with COLO 205, 4.84 µM (inactive); with OVCAR-4, 13.4 µM (inactive); in the assay on BT-549, 5.61 µM (inactive); in the assay on U-251 it was 19.8 µM (inactive). For the same compound, the GI50 with OVCAR-5 was 17.2 µM (inactive); with MDA-N, 12.2 µM (inactive); in the assay with HL-60, 2.72 µM (inactive); with HT-29, 4.18 µM (inactive); in the assay on RPMI-8226 it was 2.5 µM (inactive); with MOLT-4, 2.25 µM (inactive). In addition, the GI50 was 18.4 µM (inactive) in the assay on SK-MEL-2; 20.6 µM (inactive) in the assay with SK-MEL-5; 17.2 µM (inactive) with UACC-62; 2.6 µM in the assay on HCT-15; 5.82 µM (inactive) in the assay with MCF7; 2.1 µM (inactive) with CCRF-CEM. Moreover, the values for the GI50 in the assay with NCI-H522 and in the assay with NCI-H23 were 1.57 µM (inactive) and 17.5 µM (inactive), respectively.

On to `C=CCNC1=C2C[C@@H](C)C[C@@H](OC)[C@@H](OC(=O)CCCN)[C@H](C)/C=C(\C)[C@@H](OC(N)=O)[C@H](OC)/C=C\C=C(/C)C(=O)NC(=CC1=O)C2=O`, for which the GI50 with SNB-19 is 15.8 µM (inactive); in the assay on PC-3, 14 µM (inactive); in the assay with COLO 205, 3.54 µM (inactive); with OVCAR-4, 20.6 µM (inactive); with BT-549 it was 8.99 µM (inactive); in the assay on U-251, 9.44 µM (inactive). Further, the GI50 in the assay on OVCAR-5 was 16 µM (inactive); in the assay with MDA-N, 12.6 µM (inactive); in the assay with HL-60 it was 4.43 µM (inactive); in the assay on HT-29, 5.37 µM (inactive); in the assay on RPMI-8226, 14.3 µM (inactive); in the assay with MOLT-4, 14 µM (inactive). Also, the GI50 is 15.9 µM (inactive) with SK-MEL-2; 8.39 µM (inactive) with SK-MEL-5; 15.2 µM (inactive) in the assay with UACC-62; 19.4 µM with HCT-15; 6.98 µM (inactive) in the assay on MCF7; 10.6 µM (inactive) in the assay with CCRF-CEM. Further, the GI50 was 6.82 µM (inactive) in the assay with NCI-H522 and 13.9 µM (inactive) in the assay with NCI-H23.

Consider `CCOC(=O)CSc1nnc2cc(CN3CCCC3)c(-c3ccc(Cl)cc3)nn12`, for which the GI50 is > 100 µM (inactive) in the assay with SNB-19; > 100 µM (inactive) in the assay on PC-3; > 100 µM (inactive) in the assay on COLO 205; 33.6 µM (inactive) with OVCAR-4; > 100 µM (inactive) with BT-549; > 100 µM (inactive) in the assay on U-251. Moreover, the GI50 in the assay with OVCAR-5 is > 100 µM (inactive); in the assay on MDA-N it was 85.9 µM (inactive); with HL-60, 89.3 µM (inactive); with HT-29, 74.5 µM (inactive); in the assay on RPMI-8226, 63.2 µM (inactive); in the assay on MOLT-4, 38.5 µM (inactive). Moreover, the GI50 in the assay with SK-MEL-2 is > 100 µM (inactive); in the assay on SK-MEL-5, > 100 µM (inactive); in the assay with UACC-62 it was > 100 µM (inactive); in the assay with HCT-15, more than 100 µM; with MCF7 it was 46.9 µM (inactive); in the assay with CCRF-CEM, 48.1 µM (inactive). For the same compound, the GI50 in the assay with NCI-H522 was 39.7 µM (inactive); in the assay with NCI-H23, > 100 µM (inactive).

For the compound `c1cnc2c(c1)ccc1cccnc12`, the GI50 is 8.57 µM (inactive) in the assay with SNB-19; > 27.1 µM (inactive) with PC-3; 4.27 µM (inactive) with COLO 205; 4.63 µM (inactive) with OVCAR-4; 9.79 µM (inactive) in the assay with BT-549; > 20.2 µM (inactive) in the assay on U-251. The GI50 was 5.31 µM (inactive) in the assay on OVCAR-5; 4.97 µM (inactive) in the assay with MDA-N; 0.354 µM (active) with HL-60; 4.55 µM (inactive) with HT-29; 2.67 µM (inactive) with RPMI-8226; 2.86 µM (inactive) in the assay with MOLT-4. Also, the GI50 is > 28.4 µM (inactive) in the assay with SK-MEL-2; 2.62 µM (inactive) with SK-MEL-5; 3.81 µM (inactive) in the assay with UACC-62; 3.12 µM with HCT-15; 3.66 µM (inactive) with MCF7; 1.87 µM (inactive) in the assay with CCRF-CEM. Moreover, the GI50 with NCI-H522 is 5.86 µM (inactive); with NCI-H23, 5.12 µM (inactive).

In the case of `COc1cccc2c1C(=O)C1=C(C2=O)C(O)CC(C)(C)O1` (stereo not given), the GI50 in the assay on SNB-19 was 76.7 µM (inactive); in the assay on PC-3, 25.5 µM (inactive); in the assay on COLO 205 it was 23.5 µM (inactive); with OVCAR-4 it was 19.3 µM (inactive); with BT-549, 63.7 µM (inactive); with U-251, 32.4 µM (inactive). Moreover, the GI50 is 58.9 µM (inactive) with OVCAR-5; 19.5 µM (inactive) in the assay on MDA-N; 11.7 µM (inactive) in the assay with HL-60; 37.7 µM (inactive) in the assay on HT-29; 22.3 µM (inactive) in the assay on RPMI-8226; 29 µM (inactive) in the assay on MOLT-4. In addition, the GI50 is 36.2 µM (inactive) in the assay on SK-MEL-2; 14.4 µM (inactive) in the assay on SK-MEL-5; 25.1 µM (inactive) in the assay with UACC-62; 38.6 µM in the assay with HCT-15; 36.6 µM (inactive) in the assay on MCF7; 23.4 µM (inactive) with CCRF-CEM. Moreover, the GI50 is 26.2 µM (inactive) in the assay on NCI-H522 and 28.5 µM (inactive) with NCI-H23.

On to `NCCCC(N)C(=O)O` (stereo not given), for which the GI50 in the assay with SNB-19, in the assay with PC-3, in the assay on COLO 205, in the assay on OVCAR-4, in the assay with BT-549 and in the assay with U-251 was > 100 µM (inactive) in each case. Besides, the GI50 in the assay with OVCAR-5, in the assay with MDA-N, in the assay with HL-60, in the assay with HT-29, in the assay with RPMI-8226 and in the assay with MOLT-4 was > 100 µM (inactive) throughout. The GI50 is > 100 µM (inactive) in the assay on SK-MEL-2; > 100 µM (inactive) in the assay on SK-MEL-5; > 100 µM (inactive) in the assay on UACC-62; more than 100 µM with HCT-15; > 100 µM (inactive) in the assay on MCF7; > 100 µM (inactive) with CCRF-CEM. In addition, the GI50 in the assay with NCI-H522 and in the assay on NCI-H23 was > 100 µM (inactive) in each case.

With `COC(=O)c1ccccc1/C=C1\Cc2ccc(C)c(C)c2C1=O`, the GI50 was 44.5 µM (inactive) with SNB-19; > 100 µM (inactive) in the assay on PC-3; > 100 µM (inactive) in the assay with COLO 205; > 100 µM (inactive) with OVCAR-4; > 100 µM (inactive) in the assay with BT-549; 48.6 µM (inactive) with U-251. The GI50 in the assay with OVCAR-5, with MDA-N, in the assay with HL-60, in the assay on HT-29, with RPMI-8226 and in the assay on MOLT-4 was > 100 µM (inactive) in each case. Further, the GI50 in the assay with SK-MEL-2 was > 100 µM (inactive); with SK-MEL-5, > 100 µM (inactive); in the assay with UACC-62, > 100 µM (inactive); in the assay on HCT-15 it was more than 100 µM; in the assay with MCF7, > 100 µM (inactive); with CCRF-CEM it was > 100 µM (inactive). For the same compound, the GI50 in the assay on NCI-H522 is 65.5 µM (inactive); in the assay with NCI-H23 it was > 100 µM (inactive).

For `COc1cc2c(cc1O)CC[n+]1cc3c(OC)c(OC)ccc3cc1-2`, the GI50 in the assay with SNB-19 was 60.1 µM (inactive); in the assay with PC-3 it was > 100 µM (inactive); in the assay with COLO 205 it was 72.4 µM (inactive); with OVCAR-4, > 100 µM (inactive); in the assay with BT-549, 47.3 µM (inactive); in the assay on U-251 it was 35.6 µM (inactive). The GI50 in the assay with OVCAR-5 was > 100 µM (inactive); with MDA-N, > 100 µM (inactive); in the assay on HL-60, > 100 µM (inactive); in the assay with HT-29, > 100 µM (inactive); with RPMI-8226, 81.8 µM (inactive); with MOLT-4, > 100 µM (inactive). Also, the GI50 with SK-MEL-2 was > 100 µM (inactive); in the assay with SK-MEL-5, 51.1 µM (inactive); with UACC-62, > 100 µM (inactive); in the assay on HCT-15 it was more than 100 µM; in the assay on MCF7 it was > 100 µM (inactive); in the assay with CCRF-CEM, > 100 µM (inactive). In addition, the GI50 in the assay with NCI-H522 was > 100 µM (inactive); with NCI-H23, 62.5 µM (inactive).
